{"source": "patent US10383837B2", "about": "“Compositions and methods for modulating metabolic pathways” (NuSirt Sciences, Inc., priority 2011, dated 2019)", "key": {"SIRT1 [1]": {"molecular_target": "T1, SIRT1 (Mus musculus, UniProt Q923E4)", "T1 sequence (Q923E4 1-737)": "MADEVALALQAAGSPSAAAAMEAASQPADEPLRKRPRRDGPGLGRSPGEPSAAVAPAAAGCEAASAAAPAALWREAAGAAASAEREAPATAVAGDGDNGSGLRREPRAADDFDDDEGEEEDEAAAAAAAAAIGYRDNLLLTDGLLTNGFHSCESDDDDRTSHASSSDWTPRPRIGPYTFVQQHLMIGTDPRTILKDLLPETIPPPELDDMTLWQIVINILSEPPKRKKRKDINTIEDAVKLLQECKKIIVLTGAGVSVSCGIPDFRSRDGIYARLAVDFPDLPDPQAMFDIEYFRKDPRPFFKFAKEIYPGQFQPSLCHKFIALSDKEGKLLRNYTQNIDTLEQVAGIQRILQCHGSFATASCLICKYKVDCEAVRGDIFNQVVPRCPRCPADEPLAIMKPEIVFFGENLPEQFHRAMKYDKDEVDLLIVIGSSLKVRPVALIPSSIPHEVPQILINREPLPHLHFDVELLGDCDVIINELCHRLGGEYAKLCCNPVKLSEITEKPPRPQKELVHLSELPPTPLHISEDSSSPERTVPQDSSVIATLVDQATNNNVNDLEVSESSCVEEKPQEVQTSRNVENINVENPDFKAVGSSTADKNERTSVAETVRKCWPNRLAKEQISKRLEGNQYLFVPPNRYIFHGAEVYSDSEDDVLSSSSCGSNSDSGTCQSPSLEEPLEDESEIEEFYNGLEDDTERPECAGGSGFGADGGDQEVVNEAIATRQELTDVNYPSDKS", "experiment": "Adipose tissue Sirt1 activity in diet-induced obese mice", "assay_type": "in vivo, c57/BL6 mice", "design": "from tissue; host or cells: adipose tissue of diet-induced obese c57/BL6 mice", "conditions": "6 weeks"}, "UCP1": {"test_system": "UCP1", "experiment": "UCP1 mRNA expression in subcutaneous adipose tissue of diet-induced obese mice", "assay_type": "in vivo, c57/BL6 mice", "conditions": "six weeks, resveratrol 12.5 mg/kg diet, leucine 2.42%", "protocol": "Expression of 18S, Sirt1, Sirt3, PGC1-α, cytochrome c oxidase subunit VIIc1 (COX 7), mitochondrial NADH dehydrogenase, nuclear respiratory factor 1 (NRF1), uncoupling protein (UCP2 (adipocyte)/UCP3 (myocyte), p53, AMPK, Akt/PKB, and GLUT4 is measured via quantitative real-time PCR using an ABI 7300 Real-Time PCR system (Applied Biosystems, Branchburg, N.J.) with a TaqMan® core reagent kit. All primers and probe sets can be obtained from Applied Biosystems TaqMan® Assays-on-Demand and utilized accordingly to manufacturer's instructions. Pooled RNA from each cell type are serial-diluted in the range of 0.0156-50 ng and were used to establish a standard curve; total RNA for each unknown sample is also diluted in this range. […] Expression of each gene of interest is then normalized using the corresponding 18S quantitation.\nSix week old male c57/BL6 mice were fed a high-fat diet with fat increased to 45% of energy (Research Diets D12451) for 6 weeks to induce obesity. […] RNA was extracted from the subcutaneous adipose tissue, and gene expression was evaluated according to methods described in Example 4. […] Plasma levels of irisin were also evaluated, the results of which are described in Example 8 and illustrated in FIG. 70. […] Protein expression may also be determined by Western blot or ELISA, as in Example 8. […]"}, "myotubes (C2C12)": {"test_system": "myotubes (C2C12)", "experiment": "Fatty acid oxidation, palmitate-induced O2 consumption (Seahorse XF24), myotubes", "assay_type": "cell-based", "conditions": "24 hours treatment, leucine 0.5 mM, HMB 5 μM, resveratrol 200 nM, partner at its no-effect concentration, % change from control"}, "Adipocytes (3T3-L1)": {"test_system": "Adipocytes (3T3-L1)", "experiment": "Fatty acid oxidation by 3H-palmitate in 3T3-L1 adipocytes", "assay_type": "cell-based", "conditions": "4 hours, low (5 mM) glucose, resveratrol 200 nM, HMB 5 uM, leucine 0.5 mM", "protocol": "High glucose medium reduced fatty acid oxidation by 46% (p<0.05).\nFatty acid oxidation was measured using ^3H-labeled palmitate oxidation, with the ^3H label trapped as water as a result of the fat oxidation. The ^3H was then measured via scintillation counter."}, "SIRT1 [2]": {"molecular_target": "T1, SIRT1", "experiment": "Sirt1 activity of treated cells (SIRT1 Fluorimetric Drug Discovery Kit), Example 5", "assay_type": "cell-based", "design": "endogenous in cells; host or cells: 3T3-L1 adipocytes and C2C12 myotubes", "conditions": "leucine 0.5 mM, HMB 5 μM, resveratrol 200 nM; summary in Example 5, system not stated", "protocol": "All compounds were tested for potential to independently or synergistically modulate sirtuin signaling either by direct stimulation or indirect via upstream signaling via AMPK. A key outcome of Sirt1 signaling is stimulation of PGC1-α and subsequent stimulation of mitochondrial biogenesis and fatty acid oxidation. Accordingly, fatty acid oxidation, measured as palmitate-induced oxygen consumption as described below, was utilized as a sensitive first level of screening for aerobic mitochondrial metabolism. A dose-response curve for fatty acid oxidation was established for each compound studied, and a “sub-therapeutic dose” was defined as the highest dose that exerted no effect in this system. […] Following assessment of fatty acid oxidation, Sirt1 activity, AMPK activity, mitochondrial biogenesis and glucose utilization (measured as glucose-induced extracellular acidification in the absence of fatty acids in the media) were assessed for lead combinations and appropriate controls. SIRT1 activity was measured by using the SIRT1 Fluorimetric Drug Discovery Kit (BML-AK555, ENZO Life Sciences International, Inc. PA, USA). […]"}}, "data": [{"molecule": "Oc1ccc(/C=C/c2cc(O)cc(O)c2)cc1", "note": "[resveratrol, 3,5,4′-Trihydroxy-trans-stilbene]", "values": [{"measurement": "adipose tissue Sirt1 activity", "setting": "SIRT1 [1]; high dose resveratrol", "result": "non-significant trend towards an increase"}, {"measurement": "adipose tissue Sirt1 activity", "setting": "SIRT1 [1]; low dose of resveratrol, HMB, leucine diets", "result": "Neither resveratrol nor HMB exerted significant independent effects"}, {"measurement": "increase in UCP1 expression in white subcutaneous adipose tissue", "setting": "UCP1", "result": "no independent effect"}, {"measurement": "increase in myotube fatty acid oxidation", "setting": "myotubes (C2C12)", "result": "neither component exerted an independent effect"}, {"measurement": "increase in fatty acid oxidation, low glucose", "setting": "Adipocytes (3T3-L1)", "result": "no independent effect"}, {"measurement": "stimulation of Sirt1 activity", "setting": "SIRT1 [2]", "result": "no effect"}]}]}
